Reference: PMC5666896, “Molecular Docking and Screening Studies of New Natural Sortase A Inhibitors” (International Journal of Molecular Sciences, 2017)
“Also recorded” adds a separate entry of the source. Where two headings read alike, the source gives them in different places.

How the values were obtained:
SrtA = biological target: T1, SrtA (Staphylococcus aureus, UniProt Q2FV99); test: Sortase A activity assay (FRET, SensoLyte 520 kit); assay type: biochemical, S. aureus; conditions: for SrtA inhibitory activity relative to myricetin (fold lower; myricetin IC50 fold lower than this compound): ratio of IC50 values to myricetin
T1 construct: purchased Anaspec, San Jose, CA, USA
T1 sequence (Q2FV99 whole entry): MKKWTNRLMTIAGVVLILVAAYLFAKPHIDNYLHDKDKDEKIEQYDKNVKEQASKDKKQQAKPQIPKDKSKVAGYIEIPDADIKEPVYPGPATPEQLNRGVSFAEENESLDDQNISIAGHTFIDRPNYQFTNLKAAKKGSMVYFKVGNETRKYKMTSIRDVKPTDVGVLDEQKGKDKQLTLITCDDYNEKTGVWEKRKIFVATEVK
Description: The inhibitory activity of all of the compounds was determined by quantifying the increase in fluorescence intensity upon a cleavage 5-FAM/QXL® FRET substrate using a SensoLyte® 520 Sortase A Activity Assay Kit (Anaspec, San Jose, CA, USA). According to kit protocol, reactions were performed in a 96-well plate, with each well containing 10 μL test compound solution, 40 μL enzyme solution, and 50 μL sortase substrate solution. All compounds were dissolved in dimethyl sulfoxide (DMSO) and diluted with sterilized distilled water. The final concentration of DMSO was 1%. Each compound diluted in buffer to the tested concentration and was checked for intrinsic fluorescence. According to the kit protocol, we used the enzyme without the test compound as a control, a 1% DMSO control, and a substrate control. We used the kit inhibitor, 4-hydroxymercuribenzoic acid (HMB), as the positive control. Reactions were carried out for 1 h at room temperature and analyzed fluorometrically (SpectraMAX Gemini XS, CA, USA) at Ex/Em = 490 nm/520 nm. All reported values are the means of triplicate assays.

in vivo = conditions: in vivo
Description: (§1) The Daphnia magna test was performed in 4 mL 12-tissue culture wells, using 10 daphnids/well, with each sample being tested in duplicate. […] All experiments were conducted in the dark, in a plant growth chamber (Sanyo MLR-351 H, San Diego, CA, USA) at 25 ± 1 °C [32, 33].
(§2) Statistical analysis of the inhibitory effect on SrtA and the Daphnia magna bioassay was performed using GraphPad Prism version 5.01 software (GraphPad Software, Inc., La Jolla, CA, USA). A student’s t-test (p < 0.05) was applied in order to analyze the results obtained from replicates. […] The inhibition (I %) and lethality percentage (L %) values were calculated and plotted against the logarithm of concentrations and the corresponding curves were calculated using the least squares fit method. […] Whenever the obtained results permitted, the upper and lower limits of the 95% confidence interval (95% CI) and the correlation coefficient (r^2) were calculated.

Daphnia magna = test: in vivo; conditions: for Maximum lethality: after 48 h, tested 0.5 to 100 μM; for Highest lethality: after 48 h of exposure at 100 μM; for Toxicity on Daphnia magna (result in words): in vivo
Description: as §1, §2

[1] = Solubility in water (observation during FRET testing)

C[C@@H]1CC[C@H]2[C@@H](C)C(=O)O[C@@H]3O[C@@]4(C)CC[C@@H]1[C@]32OO4 [Artemisinin, reference compound]
SrtA inhibition (result in words) (SrtA): statistically significant SrtA inhibition
inhibition at 50 µM (SrtA): 5.32%

O=c1cc(-c2ccccc2)oc2cc(O)cc(O)c12 [Chrysin]
SrtA inhibition (result in words) (SrtA): statistically significant SrtA inhibition
LC50 at 48 h (in vivo): 17.7 µM

O=c1ccc2cc(O)c(O)cc2o1 [Esculetin]
IC50 (SrtA): 36.2 µM
SrtA inhibition (result in words) (SrtA): statistically significant SrtA inhibition
inhibition at 250 µM (SrtA): 83.6%
SrtA inhibitory activity relative to myricetin (fold lower; myricetin IC50 fold lower than this compound) (SrtA): eight-fold
Maximum lethality (Daphnia magna): ≤ 30%
Highest lethality (Daphnia magna): ≤ 30%

O=c1ccc2cc(O[C@@H]3O[C@H](CO)[C@@H](O)[C@H](O)[C@H]3O)c(O)cc2o1 [Esculin, Esculin sesquihydrate]
SrtA inhibition (result in words) (SrtA): low SrtA inhibition

O=c1c(-c2ccc(O)cc2)coc2cc(O)cc(O)c12 [Genistein]
inhibition at 500 µM (SrtA): 9.63%

O=C(O)c1cc[c]([Hg][OH])cc1 [HMB, 4-hydroxymercuribenzoic acid, reference compound]
Inhibition (%) (SrtA; 5 μM, after 1 h of incubation): 93.87%
IC50 (SrtA; after 1 h of incubation, read-out: IC50): 0.114 µM

O=c1c(O)c(-c2cc(O)c(O)c(O)c2)oc2cc(O)cc(O)c12 [Myricetin]
IC50 (SrtA): 4.63 µM
SrtA inhibition (result in words) (SrtA): statistically significant SrtA inhibition
inhibition at 100 µM (SrtA): 92%
Maximum lethality (Daphnia magna): ≤ 30%
Highest lethality (Daphnia magna): ≤ 30%

COc1cc2c(cc1OC)-c1cc3ccc(OC)c(OC)c3c[n+]1CC2 [Palmatine chloride]
IC50 (SrtA): 52.8 µM
SrtA inhibition (result in words) (SrtA): statistically significant SrtA inhibition
inhibition at 500 µM (SrtA): 85.3%
SrtA inhibitory activity relative to myricetin (fold lower; myricetin IC50 fold lower than this compound) (SrtA): eleven-fold
Maximum lethality (Daphnia magna): ≤ 30%
Highest lethality (Daphnia magna): ≤ 30%

O=C(/C=C/C=C/c1ccc2c(c1)OCO2)N1CCCCC1 [Piperine]
SrtA inhibition (result in words) (SrtA): statistically significant SrtA inhibition
inhibition at 10 µM (SrtA): 14.9%
Solubility in water (result in words) [1]: low solubility in water; also recorded: low aqueous solubility
Toxicity on Daphnia magna (result in words) (Daphnia magna): high level of toxicity
LC50 at 24 h (in vivo): 145 µM
LC50 at 48 h (in vivo): 3.45 µM

COc1cc([C@@H]2c3cc4c(cc3[C@H](O)[C@H]3COC(=O)[C@H]23)OCO4)cc(OC)c1OC [Podophyllotoxin]
SrtA inhibition (result in words) (SrtA): statistically significant SrtA inhibition
inhibition at 50 µM (SrtA): 26.4%
Solubility in water (result in words) [1]: low aqueous solubility
Toxicity on Daphnia magna (result in words) (Daphnia magna): high level of toxicity
LC50 at 48 h (in vivo): 6.47 µM

O=C(O)[C@]1(O)C[C@@H](O)[C@@H](O)[C@H](O)C1 [Quinic acid]
SrtA inhibition (result in words) (SrtA): statistically significant SrtA inhibition
inhibition at 500 µM (SrtA): 19.6%

C[C@@H]1O[C@@H](OC[C@H]2O[C@@H](Oc3c(-c4ccc(O)c(O)c4)oc4cc(O)cc(O)c4c3=O)[C@H](O)[C@@H](O)[C@@H]2O)[C@H](O)[C@H](O)[C@H]1O [Rutin trihydrate]
SrtA inhibition (result in words) (SrtA): statistically significant SrtA inhibition
inhibition at 500 µM (SrtA): 28.7%
Maximum lethality (Daphnia magna): ≤ 30%
Highest lethality (Daphnia magna): ≤ 30%

C[C@@H]1O[C@@H](OC[C@H]2O[C@@H](Oc3c(-c4ccc(OCCO)c(OCCO)c4)oc4cc(OCCO)cc(O)c4c3=O)[C@H](O)[C@@H](O)[C@@H]2O)[C@H](O)[C@H](O)[C@H]1O [Troxerutin]
SrtA inhibition (result in words) (SrtA): statistically significant SrtA inhibition
inhibition at 500 µM (SrtA): 23.5%
Maximum lethality (Daphnia magna): ≤ 30%
Highest lethality (Daphnia magna): ≤ 30%

O=c1ccc2ccc(O)cc2o1 [Umbelliferone]
SrtA inhibition (result in words) (SrtA): statistically significant SrtA inhibition; also recorded: small inhibitory effect
inhibition at 250 µM (SrtA): 4.04%
LC50 at 48 h (in vivo): 105 µM

O=C(O)/C=C/c1ccc(O)c(O)c1 [caffeic acid, Caffeic acid]
SrtA inhibition (result in words) (SrtA): inactive

O=c1ccc2ccccc2o1 [coumarin, Coumarin]
SrtA inhibition (result in words) (SrtA): small inhibitory effect

C[C@@H]1O[C@@H](O[C@H]2[C@H](Oc3cc(O)c4c(c3)O[C@H](c3ccc(O)cc3)CC4=O)O[C@H](CO)[C@@H](O)[C@@H]2O)[C@H](O)[C@H](O)[C@H]1O [naringin, Naringin]
SrtA inhibition (result in words) (SrtA): statistically significant SrtA inhibition
Maximum lethality (Daphnia magna): ≤ 30%

COc1cc(/C=C/C(=O)O)ccc1O [trans-ferulic acid, trans-Ferulic acid]
SrtA inhibition (result in words) (SrtA): inactive
